Measurements taken from US12364692B2, “Topical naloxone compositions and methods for using the same” (Teikoku Pharma USA, Inc., priority 2020, dated 2025).

Legend:
[1] = control and treatments other than hydrogen peroxide (5N hydrochloric acid, 5N sodium hydroxide 18 hours, 60° C. 2 weeks); peak areas relative to total area
[2] = test system: mice (HOS:HR-1 hairless) with atopic dermatitis skin symptoms; test: Scratching behavior in hairless mouse model of atopic dermatitis pruritis; format: in vivo; conditions: FIGS. 3-6; topical 0.1 ml/day, days 34, 41, 48, 55
Method: Atopic dermatitis skin symptoms were induced by providing a special feed diet 10 to mice (HOS:HR-1 hairless). All groups were treated with daily 0.1 ml/day of ointment over the entire back of each mouse for three consecutive weeks starting on Day 34. Mice were video recorded predose (baseline activity) for 30 minutes and observed for scratching for a period of one hour post application on days 34, 35, 38, 41, 45, 48, and 55. The topical naloxone active agent composition was allowed to dry 15 for one (1) hour prior to video recording of scratching behavior. Scratching behavior was monitored every 5 minutes for an hour where the number of scratching bouts includes one or more of the following actions: hind leg raised, scratching the back or lowering the leg to the floor. Cumulative duration of scratching behavior was also determined. Trans-epidermal water loss (TEWL) measured on Days 34, 48, 55 20 (Phase 2) and Days 33 and 55 (Phase 3) was also measured.

C=CCN1CC[C@]23c4c5ccc(O)c4O[C@H]2C(=O)CC[C@@]3(O)[C@H]1C5 [naloxone drug substance, naloxone]
total related substances [1]: below 1%

C=CCN1CC[C@]23c4c5ccc(O)c4O[C@H]2C(=O)CC[C@@]3(O)[C@H]1C5 [naloxone free base, naloxone]
cumulative scratching duration [2]: decreased
mean scratching bouts [2]: decreased
